Experimental data: PubChem BioAssay (NCI)
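Compound exposure: 48 hours, 5 concentrations, 96-well plates. The concentration for 50% growth inhibition is given as GI50. TGI marks complete inhibition of growth.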

Columns and labels:
Assay in all cases: NCI-60 cell line screen, 48 h
NCI-H23 lung = test system: NCI-H23 lung
M14 melanoma = test system: M14 melanoma
HCT-15 colon = test system: HCT-15 colon
K-562 leukemia = test system: K-562 leukemia
OVCAR-8 ovarian = test system: OVCAR-8 ovarian
UO-31 renal = test system: UO-31 renal
MDA-MB-231 breast = test system: MDA-MB-231 breast
DU-145 prostate = test system: DU-145 prostate
SNB-19 CNS = test system: SNB-19 CNS
EKVX NSCLC = test system: EKVX NSCLC

Compound | GI50 (NCI-H23 lung) [nM] | TGI (NCI-H23 lung) [µM] | GI50 (M14 melanoma) [nM] | TGI (M14 melanoma) [µM] | GI50 (HCT-15 colon) [nM] | TGI (HCT-15 colon) [µM] | GI50 (K-562 leukemia) [nM] | TGI (K-562 leukemia) [µM] | GI50 (OVCAR-8 ovarian) [nM] | TGI (OVCAR-8 ovarian) [µM] | GI50 (UO-31 renal) [nM] | TGI (UO-31 renal) [µM] | GI50 (MDA-MB-231 breast) [nM] | GI50 (DU-145 prostate) [µM] | GI50 (SNB-19 CNS) [nM] | TGI (SNB-19 CNS) [µM] | TGI (EKVX NSCLC) [µM] | TGI (MDA-MB-231 breast) [nM] | GI50 (EKVX NSCLC) [nM] | TGI (DU-145 prostate) [µM]
CCC1=C[C@@H]2CN(C1)Cc1c([nH]c3ccccc13)[C@@](C(=O)OC)(c1cc3c(cc1OC)N(C=O)[C@H]1[C@@](O)(C(=O)OC)[C@H](OC(C)=O)[C@]4(CC)[C@@H]5C[C@@H]5CN5CC[C@]31[C@@H]54)C2 | 3.18 | > 6.25 | 1.69 | 0.0643 | 107 | > 6.25 | < 0.625 | > 6.25 | 2.68 | > 6.25 | 173 | > 6.25 | 1.12 | < 0.000625 | 1.27 | > 6.25 | – | – | – | –
COc1ccc(C(=O)C(c2ccc(OC)cc2)C2(O)C(=O)Nc3c(C)cc(Cl)cc32)cc1 (stereo unspecified) | – | > 100 | – | > 100 | – | > 100 | – | > 100 | – | > 100 | – | > 100 | – | – | – | > 100 | > 100 | – | – | –
Cc1cc(O)c(C(=O)CC2(O)C(=O)Nc3c(Cl)cc(Cl)cc32)c(=O)o1 (stereo unspecified) | – | > 100 | – | > 100 | – | > 100 | – | > 100 | – | > 100 | – | > 100 | – | – | – | > 100 | > 100 | – | – | –
COC(=O)/C=C(C)/C=C/c1cc(C(C)=O)c(C)o1 | – | > 100 | – | > 100 | – | > 100 | – | > 100 | – | > 100 | – | > 100 | – | – | – | > 100 | > 100 | – | – | –
CC(C)=CC(=O)Oc1ccc([N+](=O)[O-])cc1 | – | > 100 | – | > 100 | – | > 100 | – | > 100 | – | > 100 | – | > 100 | – | – | – | > 100 | > 100 | – | – | –
COc1ccc(/C=C2\CN(C(=O)C(Cl)Cl)C/C(=C\c3ccc(OC)c(OC)c3)C2=O)cc1OC | 410 | 1.79 | 92.6 | 0.356 | 69 | 0.446 | 36.6 | > 100 | 49.5 | > 100 | 184 | 0.423 | 344 | – | – | – | 1.87 | 1390 | 366 | –
CC1(CO)OC1COCc1ccccc1 (stereo unspecified) | – | > 100 | – | > 100 | – | > 100 | – | > 100 | – | > 100 | – | > 100 | – | – | – | > 100 | > 100 | – | – | –
CC(=O)NC1=C(Nc2ccc(C)cc2)C(=O)c2ccccc2C1=O | – | 19.6 | – | 25.3 | – | 39.3 | – | > 75 | – | > 75 | – | > 75 | – | – | – | > 75 | > 75 | – | – | –
Cn1nc(-c2ccccc2)c(N=[N+]=[N-])cc1=O | – | > 100 | – | > 100 | – | > 100 | – | > 100 | – | > 100 | – | > 100 | – | – | – | > 100 | > 100 | – | – | –
CCCCCNC(=O)[C@@H]1CCCN2C(=O)CC[C@H](NC(=O)[C@H](Cc3ccc(OP(=O)(O)O)cc3)NC(C)=O)C(=O)N12 | > 25000 | > 25 | > 25000 | > 25 | > 25000 | > 25 | > 25000 | > 25 | > 25000 | > 25 | > 25000 | > 25 | > 25000 | > 25 | > 25000 | > 25 | – | > 25000 | – | > 25
